Measurements: patent US5041567A, “Antibacterial monic acid derivatives” (Beecham Group plc, priority 1982, dated 1991)
≈ marks a conversion by molar mass, not a printed value. Like-named read-outs stand apart in the source and are kept apart here.

How the values were obtained:
[1] = tested on: Corynebacterium pyogenes CY1; assay: MIC against veterinary bacteria in vitro
Method: (§1) The activity of the compounds of the Examples against various veterinarily important bacteria, was assayed in vitro using two-fold serial dilutions in Diagnostic Sensitivity Test Agar inoculated with 10^4 organisms.

M. suipneumoniae LABER = assay: MIC against mycoplasma in vitro; assay type: cell-based
[2] = tested on: M. suipneumoniae J2206/183^b; assay: MIC against mycoplasma in vitro; assay type: cell-based
Bord. bronchiseptica B08 = assay: MIC against veterinary bacteria in vitro
Method: as §1

Strep. uberis SPU1 = assay: MIC against veterinary bacteria in vitro
Method: as §1

Strep. dysgalactiae SPD1 = assay: MIC against veterinary bacteria in vitro
Method: as §1

M. bovis NCTC 10131 = assay: microbe, parasite or virus in culture; assay type: cell-based
Strep. faecalis I = assay: MIC against human bacteria in vitro; assay type: cell-based; details: Strep. faecalis I, 5% chocolated horse blood agar, 18 hours
[3] = tested on: Pasteurella multocida 1633; assay: MIC against human bacteria in vitro; assay type: cell-based; details: Pasteurella multocida 1633, 5% chocolated horse blood agar, 18 hours
M. hyorhinis ATCC 23234 = assay: MIC against mycoplasma in vitro; assay type: cell-based
[4] = tested on: M. hyosynoviae ATCC 25591; assay: MIC against mycoplasma in vitro; assay type: cell-based
K. aerogenes A = assay: MIC against human bacteria in vitro; assay type: cell-based; details: K. aerogenes A, 5% chocolated horse blood agar, 18 hours
M. suipneumoniae HK(2) = assay: MIC against mycoplasma in vitro; assay type: cell-based
Bacillus subtilis 6633 = assay: MIC against human bacteria in vitro; assay type: cell-based; details: Bacillus subtilis 6633, 5% chocolated horse blood agar, 18 hours
B. subtilis ATCC 6633 = assay: MIC against veterinary bacteria in vitro
Method: as §1

S. typhimurium S18 = assay: MIC against veterinary bacteria in vitro
Method: as §1

E. coli ESS = assay: MIC against human bacteria in vitro; assay type: cell-based; details: E. coli ESS, 5% chocolated horse blood agar, 18 hours
Strep. spp. 64/848-C = assay: MIC against human bacteria in vitro; assay type: cell-based; details: Strep. spp. 64/848-C, 5% chocolated horse blood agar, 18 hours
[5] = tested on: Staph. aureus B4 (pen. resistant); assay: MIC against veterinary bacteria in vitro
Method: as §1

Bord. bronchiseptica B09 = assay: MIC against veterinary bacteria in vitro
Method: as §1

Staph. aureus Oxford = assay: MIC against veterinary bacteria in vitro
Method: as §1

M. pneumoniae ATCC 15492 = assay: MIC against mycoplasma in vitro; assay type: cell-based
[6] = tested on: Erysipelothrix rhusiopathiae NCTC 8163; assay: MIC against veterinary bacteria in vitro
Method: as §1

[7] = Mesomycoplasma hyopneumoniae, 144 h
[8] = Mesomycoplasma hyopneumoniae, 144 h, M. suipneumoniae J2206/183^b, 6 days, 37° C., read-out: MIC
[9] = Bordetella bronchiseptica, B08, 18 h
[10] = Streptococcus uberis, SPU1, 18 h
[11] = Streptococcus dysgalactiae, SPD1, 18 h
[12] = Enterococcus faecalis, read-out: MIC
[13] = Mesomycoplasma hyorhinis, ATCC23234, 144 h
[14] = Klebsiella aerogenes, read-out: MIC
[15] = Mesomycoplasma hyopneumoniae, 144 h, M. suipneumoniae HK(2), 6 days, 37° C., read-out: MIC
[16] = Bacillus subtilis, ATCC6633, 18 h
[17] = Salmonella enterica, TYPHIMURIUM, 18 h
[18] = Escherichia coli, read-out: MIC
[19] = Bordetella bronchiseptica, B09, 18 h
[20] = Mycoplasmoides pneumoniae, ATCC15492, 144 h
[21] = Erysipelothrix rhusiopathiae, NCTC8163, 18 h

C/C(=C\c1ncc(-c2ccc(C#N)cc2)o1)C[C@@H]1OC[C@H](C[C@@H]2O[C@H]2[C@@H](C)[C@H](C)O)[C@@H](O)[C@H]1O [Example 21, 5-p-Cyanophenyl-2-(1-normon-2-yl) oxazole A]
MIC ([1]; CY1, 18 h): > 80 µg/mL
MIC (M. suipneumoniae LABER; [7]): 0.25 µg/mL (≈ 0.534 µM)
MIC [2, 8]: 0.5 µg/mL (≈ 1.07 µM)
MIC (Bord. bronchiseptica B08; [9]): 40 µg/mL (≈ 85.4 µM)
MIC (Strep. uberis SPU1; [10]): 0.156 µg/mL (≈ 0.333 µM)
MIC (Strep. dysgalactiae SPD1; [11]): 0.625 µg/mL (≈ 1.33 µM)
MIC (M. bovis NCTC 10131; NCTC10131, 144 h): 0.025 µg/mL (≈ 0.0534 µM)
MIC (Strep. faecalis I; [12]): > 128 µg/mL
MIC ([3]; read-out: MIC): 8 µg/mL (≈ 17.1 µM)
MIC (M. hyorhinis ATCC 23234; [13]): 0.25 µg/mL (≈ 0.534 µM)
MIC ([4]; 144 h): 0.1 µg/mL (≈ 0.213 µM)
MIC (K. aerogenes A; [14]): > 128 µg/mL
MIC (M. suipneumoniae HK(2); [15]): 0.5 µg/mL (≈ 1.07 µM)
MIC (Bacillus subtilis 6633; read-out: MIC): 1 µg/mL (≈ 2.13 µM)
MIC (B. subtilis ATCC 6633; [16]): 2.5 µg/mL (≈ 5.34 µM)
MIC (S. typhimurium S18; [17]): > 80 µg/mL
MIC (E. coli ESS; [18]): 4 µg/mL (≈ 8.54 µM)
MIC (Strep. spp. 64/848-C; read-out: MIC): 4 µg/mL (≈ 8.54 µM)
MIC ([5]; Staphylococcus aureus, 18 h): 1.25 µg/mL (≈ 2.67 µM)
MIC (Bord. bronchiseptica B09; [19]): 10 µg/mL (≈ 21.3 µM)
MIC (Staph. aureus Oxford; Staphylococcus aureus, 18 h): 2.5 µg/mL (≈ 5.34 µM)
MIC (M. pneumoniae ATCC 15492; [20]): 0.25 µg/mL (≈ 0.534 µM)
MIC [6, 21]: 40 µg/mL (≈ 85.4 µM)

C/C(=C\c1ncc(Cc2ccccc2)o1)C[C@@H]1OC[C@H](C[C@@H]2O[C@H]2[C@@H](C)[C@H](C)O)[C@@H](O)[C@H]1O [Example 27, 5-Benzyl-2-(1-normon-2-yl)oxazole A]
MIC ([1]; CY1, 18 h): > 80 µg/mL
MIC (M. suipneumoniae LABER; Mesomycoplasma hyopneumoniae, 144 h, M. suipneumoniae LABER, 6 days, 37° C., read-out: MIC): 5 µg/mL (≈ 10.9 µM)
MIC [2, 8]: 10 µg/mL (≈ 21.9 µM)
MIC (Bord. bronchiseptica B08; [9]): > 80 µg/mL
MIC (Strep. uberis SPU1; [10]): 1.25 µg/mL (≈ 2.73 µM)
MIC (Strep. dysgalactiae SPD1; [11]): 2.5 µg/mL (≈ 5.46 µM)
MIC (M. bovis NCTC 10131; NCTC10131, 144 h): 0.05 µg/mL (≈ 0.109 µM)
MIC (Strep. faecalis I; [12]): > 64 µg/mL
MIC ([3]; read-out: MIC): 32 µg/mL (≈ 69.9 µM)
MIC (M. hyorhinis ATCC 23234; Mesomycoplasma hyorhinis, ATCC23234, 144 h, M. hyorhinis ATCC 23234, 6 days, 37° C., read-out: MIC): 10 µg/mL (≈ 21.9 µM)
MIC ([4]; 144 h): 2.5 µg/mL (≈ 5.46 µM)
MIC (K. aerogenes A; [14]): > 64 µg/mL
MIC (M. suipneumoniae HK(2); [15]): 10 µg/mL (≈ 21.9 µM)
MIC (Bacillus subtilis 6633; read-out: MIC): 4 µg/mL (≈ 8.74 µM)
MIC (B. subtilis ATCC 6633; [16]): 2.5 µg/mL (≈ 5.46 µM)
MIC (S. typhimurium S18; [17]): > 80 µg/mL
MIC (E. coli ESS; [18]): 16 µg/mL (≈ 35 µM)
MIC (Strep. spp. 64/848-C; read-out: MIC): 16 µg/mL (≈ 35 µM)
MIC ([5]; Staphylococcus aureus, 18 h): 2.5 µg/mL (≈ 5.46 µM)
MIC (Bord. bronchiseptica B09; [19]): 80 µg/mL (≈ 175 µM)
MIC (Staph. aureus Oxford; Staphylococcus aureus, 18 h): 10 µg/mL (≈ 21.9 µM)
MIC (M. pneumoniae ATCC 15492; Mycoplasmoides pneumoniae, ATCC15492, 144 h, M. pneumoniae ATCC 15492, 6 days, 37° C., read-out: MIC): 10 µg/mL (≈ 21.9 µM)
MIC [6, 21]: > 80 µg/mL

C/C(=C\c1ncc(-c2cccc([S+](C)[O-])c2)o1)C[C@@H]1OC[C@H](C[C@@H]2O[C@H]2[C@@H](C)[C@H](C)O)[C@@H](O)[C@H]1O (some centres unmarked) [Example 25, 5-m-Methylsulphinylphenyl-2-(1-normon-2-yl)oxazole A]
MIC ([1]; CY1, 18 h): > 80 µg/mL
MIC (M. suipneumoniae LABER; [7]): 0.25 µg/mL (≈ 0.494 µM)
MIC [2, 7]: 1 µg/mL (≈ 1.98 µM)
MIC (Bord. bronchiseptica B08; [9]): > 80 µg/mL
MIC (Strep. uberis SPU1; [10]): 0.625 µg/mL (≈ 1.24 µM)
MIC (Strep. dysgalactiae SPD1; [11]): 1.25 µg/mL (≈ 2.47 µM)
MIC (M. bovis NCTC 10131; NCTC10131, 144 h): 0.025 µg/mL (≈ 0.0494 µM)
MIC (Strep. faecalis I; [12]): > 128 µg/mL
MIC ([3]; read-out: MIC): 16 µg/mL (≈ 31.6 µM)
MIC (M. hyorhinis ATCC 23234; [13]): 1 µg/mL (≈ 1.98 µM)
MIC ([4]; 144 h): 1 µg/mL (≈ 1.98 µM)
MIC (K. aerogenes A; [14]): > 128 µg/mL
MIC (M. suipneumoniae HK(2); [7]): 1 µg/mL (≈ 1.98 µM)
MIC (Bacillus subtilis 6633; read-out: MIC): 2 µg/mL (≈ 3.96 µM)
MIC (B. subtilis ATCC 6633; [16]): 2.5 µg/mL (≈ 4.94 µM)
MIC (S. typhimurium S18; [17]): > 80 µg/mL
MIC (E. coli ESS; [18]): 4 µg/mL (≈ 7.91 µM)
MIC (Strep. spp. 64/848-C; read-out: MIC): 4 µg/mL (≈ 7.91 µM)
MIC ([5]; Staphylococcus aureus, 18 h): 10 µg/mL (≈ 19.8 µM)
MIC (Bord. bronchiseptica B09; [19]): 40 µg/mL (≈ 79.1 µM)
MIC (Staph. aureus Oxford; Staphylococcus aureus, 18 h): 20 µg/mL (≈ 39.6 µM)
MIC (M. pneumoniae ATCC 15492; [20]): 2.5 µg/mL (≈ 4.94 µM)
MIC [6, 21]: > 80 µg/mL

CC(=Cc1cnc(-c2ccccc2)o1)CC1OCC(CC2OC2C(C)C(C)O)C(O)C1O (centres unmarked) [Example 35, 5-(1-Normon-2-yl)-2-phenyloxazole A]
MIC ([1]; Corynebacterium pyogenes CY1, Diagnostic Sensitivity Test Agar, 18 hours): > 80 µg/mL
MIC (M. suipneumoniae LABER; M. suipneumoniae LABER, 6 days, 37° C.): > 10 µg/mL
MIC ([2]; M. suipneumoniae J2206/183^b, 6 days, 37° C.): > 10 µg/mL
MIC (Bord. bronchiseptica B08; Bord. bronchiseptica B08, Diagnostic Sensitivity Test Agar, 18 hours): > 80 µg/mL
MIC (Strep. uberis SPU1; Strep. uberis SPU1, Diagnostic Sensitivity Test Agar, 18 hours): 80 µg/mL (≈ 180 µM)
MIC (Strep. dysgalactiae SPD1; Strep. dysgalactiae SPD1, Diagnostic Sensitivity Test Agar, 18 hours): > 80 µg/mL
MIC (M. bovis NCTC 10131; M. bovis NCTC 10131, 6 days, 37° C.): 2.5 µg/mL (≈ 5.64 µM)
MIC (Strep. faecalis I): > 128 µg/mL
MIC [3]: > 128 µg/mL
MIC (M. hyorhinis ATCC 23234; M. hyorhinis ATCC 23234, 6 days, 37° C.): > 10 µg/mL
MIC ([4]; M. hyosynoviae ATCC 25591, 6 days, 37° C.): > 10 µg/mL
MIC (K. aerogenes A): > 128 µg/mL
MIC (M. suipneumoniae HK(2); M. suipneumoniae HK(2), 6 days, 37° C.): > 10 µg/mL
MIC (Bacillus subtilis 6633): > 128 µg/mL
MIC (B. subtilis ATCC 6633; B. subtilis ATCC 6633, Diagnostic Sensitivity Test Agar, 18 hours): > 80 µg/mL
MIC (S. typhimurium S18; S. typhimurium S18, Diagnostic Sensitivity Test Agar, 18 hours): > 80 µg/mL
MIC (E. coli ESS): 128 µg/mL (≈ 289 µM)
MIC (Strep. spp. 64/848-C): > 128 µg/mL
MIC ([5]; Staph. aureus B4 (pen. resistant), Diagnostic Sensitivity Test Agar, 18 hours): > 80 µg/mL
MIC (Bord. bronchiseptica B09; Bord. bronchiseptica B09, Diagnostic Sensitivity Test Agar, 18 hours): > 80 µg/mL
MIC (Staph. aureus Oxford; Staph. aureus Oxford, Diagnostic Sensitivity Test Agar, 18 hours): > 80 µg/mL
MIC (M. pneumoniae ATCC 15492; M. pneumoniae ATCC 15492, 6 days, 37° C.): > 10 µg/mL
MIC ([6]; Erysipelothrix rhusiopathiae NCTC 8163, Diagnostic Sensitivity Test Agar, 18 hours): > 80 µg/mL
